# Measured values published in paper PMC10244169, “Psychedelics promote plasticity by directly binding to BDNF receptor TrkB” (Nature Neuroscience, 2023).
# What was measured:
# [1] = target: T1, TrkB (Rattus norvegicus, UniProt Q63604); experiment: biochemical; assay type: binding
# T1 construct: expressed in transfected cells; host or cells: HEK293T
# [2] = target: T1, TrkB; experiment: Competition binding with biotinylated R,R-HNK
# Experimental: Binding assays were performed as previously described with minor modifications. […] Samples from mouse embryo (E18) brains were also lysed, vortexed, sonicated and centrifuged for binding assays. Plates were then washed with PBS. […] For the competition binding assays with biotinylated R,R-HNK, the amino-biotinylation of R,R-HNK was performed using a commercial kit (Thermo Scientific, EZ-Link NHS-PEG4 Biotinylation Kit, 21455) and the reaction monitored by MS. A mixture of biotinylated R,R-HNK (10 µM) and unlabeled compounds (1 pM to 10 µM) in PBS was added to the 96-well plates containing the immunoprecipitated TrkB and incubated for 1 h at room temperature. […] Luminescence was determined via streptavidin conjugated with horseradish peroxidase (HRP; Thermo Fisher Scientific, 21126; 1:5,000, 1 h at room temperature) in reaction with the Pierce ECL substrate (Thermo Fisher Scientific, 32106). Luminescence from blank wells that contained all reagents but the sample lysates was used to determine nonspecific binding. To obtain the binding curves, results from binding assays were fitted to the equation of specific binding with Hill slope from GraphPad Prism 9.2. To calculate koff values, results were fitted to the equation of dissociation of one phase exponential decay from GraphPad Prism 9.2.
# [3] = target: T2, TrkB (WT) dimerization (Rattus norvegicus, UniProt Q63604); experiment: Split-luciferase PCA of TrkB dimerization in N2a cells; assay type: cell-based; conditions: ketanserin 100 nM, M100907 100 nM or TrkB.FC 200 ng ml^−1, 10 min before
# T2 construct: expressed in transfected cells; host or cells: N2a
# T2 sequence (Q63604 32-821): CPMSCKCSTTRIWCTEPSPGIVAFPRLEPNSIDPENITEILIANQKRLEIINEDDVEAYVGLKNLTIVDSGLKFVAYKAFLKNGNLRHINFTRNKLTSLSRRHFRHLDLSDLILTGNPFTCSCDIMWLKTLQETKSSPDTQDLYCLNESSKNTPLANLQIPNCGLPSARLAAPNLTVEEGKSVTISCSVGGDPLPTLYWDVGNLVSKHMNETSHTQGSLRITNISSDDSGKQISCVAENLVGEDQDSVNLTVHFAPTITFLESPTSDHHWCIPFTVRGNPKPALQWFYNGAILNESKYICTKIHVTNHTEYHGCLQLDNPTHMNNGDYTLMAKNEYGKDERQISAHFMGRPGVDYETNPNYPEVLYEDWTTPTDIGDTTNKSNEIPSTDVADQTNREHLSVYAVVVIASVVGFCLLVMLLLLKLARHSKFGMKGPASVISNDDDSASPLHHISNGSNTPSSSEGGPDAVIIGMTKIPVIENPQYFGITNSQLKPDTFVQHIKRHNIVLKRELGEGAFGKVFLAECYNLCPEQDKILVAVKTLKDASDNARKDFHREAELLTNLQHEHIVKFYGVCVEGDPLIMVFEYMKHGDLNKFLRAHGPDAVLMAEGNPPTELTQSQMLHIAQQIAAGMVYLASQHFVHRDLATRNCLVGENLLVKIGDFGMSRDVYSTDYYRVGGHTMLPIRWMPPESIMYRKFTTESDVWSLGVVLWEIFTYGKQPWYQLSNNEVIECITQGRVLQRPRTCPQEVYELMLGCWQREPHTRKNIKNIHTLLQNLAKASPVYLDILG
# T2 sequence (Q63604 32-821): as above
# Experimental: Ketanserin, M100907 and TRKB.FC were added to the media 10 min before treatment. The PCA method was performed as previously described[11],[75],[76]. Split humanized Gaussia princeps luciferase (hGLuc) was cloned on the C-terminus of the reporter proteins TrkB (WT and Y433F) and lipid raft Fyn. If the reporter proteins that carry complementary halves of the luciferase interact, the enzyme can refold in its functional conformation and, upon addition of its substrate, produce luminescence proportionally to the amount of reporter proteins interacting at a given time. N2a cells were seeded in 96-well plates with opaque walls and transparent bottom (PerkinElmer, ViewPlate 96). Cells were transfected with Lipofectamine 2000 according to the manufacturer’s instructions 24 h post-plating with the PCA pair plasmids: phGLuc(1C)-TrkB(WT) or the mutant phGLuc(1C)-TrkB(Y433F) and phGLuc(2 C)-TrkB(WT) for the dimerization experiments; phGLuc(1C)-lipid raft Fyn and phGLuc(2C)-TrkB(WT) or phGLuc(2C)-TrkB(Y433F) for the lipid raft localization experiments. Forty-eight hours post transfection, cells were treated (40 min, 37 °C) in phenol red-free Dulbecco’s modified Eagle medium without serum. […] The PCA signal was detected with the substrate for the luciferase, native coelenterazine, which was injected into each well directly in the plate reader at a final concentration of […].
# [4] = system: dendritic arbor complexity of neuronal cultures; design: method as in PMID 29898390; conditions: cultured neurons; cited from earlier work
# [5] = ext fig 1f, competition curve, n=5
# T1 sequence (Q63604 32-821): as above
smiles,measurement,setting,value
"O=C(c1ccc(F)cc1)C1CCN(CCn2c(=O)[nH]c3ccccc3c2=O)CC1 [ketanserin, ketanserin (+)-tartrate]",displacement of ^3H-LSD from TrkB,[1]; 1 nM to 10 µM of drug,fail to displace LSD binding to TrkB
same,"Fit status, specific binding with Hill slope",[1]; ext fig 1f,Ambiguous
same,"Bmax (specific binding with Hill slope, best-fit)",[1]; [5],96.24
same,"h (Hill slope, best-fit)",[1]; [5],~ 0.3927
same,"displacement of biotinylated R,R-HNK from TrkB","[2]; biotinylated R,R-HNK 10 µM","not ketanserin, displace R,R-HNK binding to TrkB"
same,"K (one phase decay, best-fit)",[2]; ext fig 1g,1491612413
same,"Plateau (one phase decay, best-fit)",[2]; ext fig 1g,97.9
same,"Span (one phase decay, best-fit)",[2]; ext fig 1g,2.855
same,"Tau (one phase decay, best-fit)",[2]; ext fig 1g,6.70E-10
same,"Y0 (one phase decay, best-fit)",[2]; ext fig 1g,100.8
same,effect of pretreatment on LSD- and BDNF-induced TrkB dimerization,[3],fails to prevent the effects of LSD and BDNF on TrkB dimerization
same,effect on LSD effects on dendritic arbor complexity,[4],prevent the effects of LSD on dendritic arbor complexity
